Experimental data taken from US9814776B2, “Pharmaceutical preparation comprising aminopyrazole derivative” (Chugai Seiyaku Kabushiki Kaisha, priority 2013, dated 2017).
≈ marks a conversion by molar mass, not a printed value.

Experiment: Solubility of Compound 1 malate after 24 hours in Dissolution Test Solution 1 of the Japanese Pharmacopoeia with 5% surfactant
Assay type: physicochemical
Conditions: thermodynamic from solid
Method: The surfactants shown in Table 3 and Dissolution Test Solution 1 of the Japanese Pharmacopoeia were used, and the concentration of each surfactant was adjusted to 5%. Compound 1 malate was sufficiently added thereto, the mixture was stirred, and the solubility after 24 hours was measured.

solubility at 24 h (pH 1.2, aqueous with cosolvent or surfactant or cyclodextrin, 5% Polyoxyethylene (10) octylphenyl ether): 0.145 mg/mL (≈ 406 µM)
solubility at 24 h (pH 1.2, aqueous with cosolvent or surfactant or cyclodextrin, 5% Polysorbate 80): 0.138 mg/mL (≈ 388 µM)
solubility at 24 h (pH 1.2, aqueous with cosolvent or surfactant or cyclodextrin, 5% Sodium lauryl sulfate): 0.136 mg/mL (≈ 383 µM)
solubility at 24 h (pH 1.2, simulated gastric fluid, no surfactant): 0.0185 mg/mL (≈ 51.9 µM)
Structure (SMILES): Cc1nc2cc(-n3ncc(C(=O)c4cc5ccccc5[nH]4)c3N)ccc2[nH]1 [Compound 1, [5-amino-1-(2-methyl-3H-benzimidazol-5-yl)-1H-pyrazol-4-yl]-(1H-indol-2-yl)-methanone]
